Reference: article PMC9879382 (Prostaglandins & other lipid mediators, 2022)
Read-outs that look alike come from different tables or passages of the source.

What was measured:
[1] = molecular target: T1, human FAAH (Homo sapiens, UniProt O00519); assay: FAAH inhibition assay; assay type: biochemical; conditions: OMP 50 μM, pH 8, 37 °C
T1 sequence (O00519 1-579): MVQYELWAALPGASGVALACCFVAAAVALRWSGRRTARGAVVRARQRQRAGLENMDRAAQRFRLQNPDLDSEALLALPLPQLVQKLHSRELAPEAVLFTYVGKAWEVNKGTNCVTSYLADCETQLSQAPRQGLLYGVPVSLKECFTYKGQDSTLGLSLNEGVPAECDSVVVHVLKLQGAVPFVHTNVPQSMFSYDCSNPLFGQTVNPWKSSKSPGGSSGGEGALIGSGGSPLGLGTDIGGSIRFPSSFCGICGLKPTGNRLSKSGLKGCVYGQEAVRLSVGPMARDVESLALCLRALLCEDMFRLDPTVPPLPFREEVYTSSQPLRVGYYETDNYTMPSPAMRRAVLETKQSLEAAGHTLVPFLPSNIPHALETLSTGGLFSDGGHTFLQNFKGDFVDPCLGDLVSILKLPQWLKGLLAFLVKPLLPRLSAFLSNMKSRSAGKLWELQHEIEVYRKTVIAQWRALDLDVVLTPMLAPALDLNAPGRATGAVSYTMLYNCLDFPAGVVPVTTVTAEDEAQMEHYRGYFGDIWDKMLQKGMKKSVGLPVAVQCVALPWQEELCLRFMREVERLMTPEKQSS

[2] = molecular target: T2, mouse sEH (Mus musculus, UniProt P34914); assay: sEH inhibition assay; assay type: biochemical
T2 sequence (P34914 1-554): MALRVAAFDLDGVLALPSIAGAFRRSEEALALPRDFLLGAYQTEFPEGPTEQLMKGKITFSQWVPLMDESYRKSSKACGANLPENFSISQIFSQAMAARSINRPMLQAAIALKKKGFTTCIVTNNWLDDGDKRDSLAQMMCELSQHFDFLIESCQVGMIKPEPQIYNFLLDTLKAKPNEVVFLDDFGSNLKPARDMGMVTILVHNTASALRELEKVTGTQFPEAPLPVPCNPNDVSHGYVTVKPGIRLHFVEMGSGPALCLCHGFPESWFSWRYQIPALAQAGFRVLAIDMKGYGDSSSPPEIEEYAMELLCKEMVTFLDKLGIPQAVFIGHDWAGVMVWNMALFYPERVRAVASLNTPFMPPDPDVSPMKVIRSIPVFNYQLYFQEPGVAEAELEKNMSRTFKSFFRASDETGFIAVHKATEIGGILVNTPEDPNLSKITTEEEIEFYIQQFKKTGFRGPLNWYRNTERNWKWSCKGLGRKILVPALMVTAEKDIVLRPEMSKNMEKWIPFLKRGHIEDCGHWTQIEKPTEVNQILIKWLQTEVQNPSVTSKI

[3] = Microsomal liver stability assay, human; assay type: in vitro ADME; conditions: pH 7.4
[4] = molecular target: T3, rat sEH (Rattus norvegicus, UniProt P80299); assay: sEH inhibition assay; assay type: biochemical
T3 sequence (P80299 1-554): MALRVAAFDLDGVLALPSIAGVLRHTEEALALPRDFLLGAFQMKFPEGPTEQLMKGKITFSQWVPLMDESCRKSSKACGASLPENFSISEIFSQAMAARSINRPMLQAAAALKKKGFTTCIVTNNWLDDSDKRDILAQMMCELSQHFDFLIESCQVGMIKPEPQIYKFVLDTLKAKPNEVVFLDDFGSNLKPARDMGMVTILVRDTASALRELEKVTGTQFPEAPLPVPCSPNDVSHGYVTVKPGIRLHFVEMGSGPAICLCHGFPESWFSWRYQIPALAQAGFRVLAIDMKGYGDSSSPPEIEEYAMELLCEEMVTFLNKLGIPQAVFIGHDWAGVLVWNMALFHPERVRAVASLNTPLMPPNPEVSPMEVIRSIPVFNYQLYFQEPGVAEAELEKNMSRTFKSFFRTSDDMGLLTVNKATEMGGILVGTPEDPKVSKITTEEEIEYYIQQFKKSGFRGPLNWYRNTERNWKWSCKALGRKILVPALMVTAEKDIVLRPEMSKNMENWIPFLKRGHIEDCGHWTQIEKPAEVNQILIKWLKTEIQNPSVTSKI

[5] = Microsomal liver stability assay, rat; assay type: in vitro ADME; conditions: both, pH 7.4
[6] = molecular target: T4, human sEH (Homo sapiens, UniProt P34913); assay: sEH inhibition assay; assay type: biochemical; conditions: CMNPC 5 μM, pH 7.4, 30 °C
T4 sequence (P34913 1-555): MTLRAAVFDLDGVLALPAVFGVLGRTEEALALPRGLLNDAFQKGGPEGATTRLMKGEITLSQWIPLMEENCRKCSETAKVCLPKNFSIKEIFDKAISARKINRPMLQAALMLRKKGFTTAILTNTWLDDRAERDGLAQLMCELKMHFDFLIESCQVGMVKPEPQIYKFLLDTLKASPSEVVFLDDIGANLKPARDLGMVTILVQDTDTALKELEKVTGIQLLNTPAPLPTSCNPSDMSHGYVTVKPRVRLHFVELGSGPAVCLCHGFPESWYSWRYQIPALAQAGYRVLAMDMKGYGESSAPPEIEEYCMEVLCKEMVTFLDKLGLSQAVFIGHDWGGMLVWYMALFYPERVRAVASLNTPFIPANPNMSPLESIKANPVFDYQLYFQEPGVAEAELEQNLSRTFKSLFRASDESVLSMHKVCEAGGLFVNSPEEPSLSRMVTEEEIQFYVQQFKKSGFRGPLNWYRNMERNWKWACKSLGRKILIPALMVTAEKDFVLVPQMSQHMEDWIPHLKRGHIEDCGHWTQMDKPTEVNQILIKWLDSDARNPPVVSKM

[7] = Microsomal liver stability assay, mouse; assay type: in vitro ADME; conditions: pH 7.4
[8] = Human FAAH IC50, human recombinant FAAH
[9] = Human sEH IC50, human recombinant sEH
[10] = read-out: Rat sEH IC50, rat sEH, CMNPC 5 μM, pH 7.4, 30 °C

| Compound | IC50 [1, 8] [µM] | IC50 [2] [nM] | IC50 [4] [nM] | IC50 [6, 9] [nM] | further results |
| --- | --- | --- | --- | --- | --- |
| O=C(Nc1ccc(-c2nc3ccccc3s2)cc1)C1CCN(S(=O)(=O)c2ccccc2C(F)(F)F)CC1 [Compound 7a, N-(4-(benzo[d]thiazol-2-yl)phenyl)-1-((2-(trifluoromethyl)phenyl)sulfonyl)piperidine-4-carboxamide] | 0.0097 | 7210 | 5.7 | 3.1 | half-life at 1 μM ([3]; human liver microsomes): 24 min; microsomal CLint at 1 μM ([3]; human liver microsomes): 57 µL/min/mg; half-life at 1 μM ([5]; rat liver microsomes): 14.7 min; microsomal CLint at 1 μM ([5]; rat liver microsomes): 94 µL/min/mg; half-life at 1 μM ([7]; mouse liver microsomes): 15.8 min; microsomal CLint at 1 μM ([7]; mouse liver microsomes): 87 µL/min/mg |
| N#Cc1ccccc1S(=O)(=O)N1CCC(C(=O)Nc2ccc(-c3nc4ccccc4s3)cc2)CC1 [Compound 7b, N-(4-(benzo[d]thiazol-2-yl)phenyl)-1-((2-cyanophenyl)sulfonyl)piperidine-4-carboxamide] | 0.287 | 578 | 185 | 19.5 | – |
| O=C(Nc1ccc(-c2nc3ccccc3s2)cc1)C1CCN(S(=O)(=O)c2cccc(C(F)(F)F)c2)CC1 [Compound 7c, N-(4-(benzo[d]thiazol-2-yl)phenyl)-1-((3-(trifluoromethyl)phenyl)sulfonyl)piperidine-4-carboxamide] | 0.0223 | 4310 | 124 | 89.3 | – |
| O=C(Nc1ccc(-c2nc3ccccc3s2)cc1)C1CCN(S(=O)(=O)c2ccc(C(F)(F)F)cc2)CC1 [Compound 7d, N-(4-(benzo[d]thiazol-2-yl)phenyl)-1-((4-(trifluoromethyl)phenyl)sulfonyl)piperidine-4-carboxamide] | 0.0481 | 9180 | 28.9 | 51.5 | – |
| O=C(Nc1ccc(-c2nc3ccccc3s2)cc1)C1CCN(S(=O)(=O)c2ccc([N+](=O)[O-])cc2)CC1 [Compound 7e, N-(4-(benzo[d]thiazol-2-yl)phenyl)-1-((4-nitrophenyl)sulfonyl)piperidine-4-carboxamide] | – | > 10000 | 4480 | – | – |
| O=C(Nc1ccc(-c2nc3ccccc3s2)cc1)C1CCN(S(=O)(=O)c2ccc(F)cc2Cl)CC1 [Compound 7f, N-(4-(benzo[d]thiazol-2-yl)phenyl)-1-((2-chloro-4-fluorophenyl)sulfonyl)piperidine-4-carboxamide] | 0.0191 | 267 | 116 | 16.9 | – |
| O=C(Nc1ccc(-c2nc3ccccc3s2)cc1)C1CCN(S(=O)(=O)c2ccc(C(F)(F)F)cc2Cl)CC1 [Compound 7g, N-(4-(benzo[d]thiazol-2-yl)phenyl)-1-((2-chloro-4-(trifluoromethyl)phenyl)sulfonyl) piperidine-4-carboxamide] | – | – | – | – | IC50 ([1]; read-out: Human FAAH IC50, human recombinant FAAH): 0.0266 µM; IC50 ([2]; read-out: Mouse sEH IC50, mouse sEH, CMNPC 5 μM, pH 7.4, 30 °C): 9060 nM; IC50 [4, 10]: 859 nM; IC50 ([6]; read-out: Human sEH IC50, human recombinant sEH): 432 nM |
| O=C(Nc1ccc(-c2nc3ccccc3s2)cc1)C1CCN(S(=O)(=O)c2ccc(F)cc2Br)CC1 [Compound 7h, N-(4-(benzo[d]thiazol-2-yl)phenyl)-1-((2-bromo-4-fluorophenyl)sulfonyl)piperidine-4-carboxamide] | 0.0289 | 402 | 11.8 | 8.2 | – |
| O=C(Nc1ccc(-c2nc3ccccc3s2)cc1)C1CCN(S(=O)(=O)c2cc(C(F)(F)F)cc(C(F)(F)F)c2)CC1 [Compound 7j, N-(4-(benzo[d]thiazol-2-yl)phenyl)-1-((3,5-bis(trifluoromethyl)phenyl)sulfonyl)piperidine-4-carboxamide] | 0.0419 | > 10000 | 2910 | 4840 | – |
| O=C(Nc1ccc(-c2nc3ccccc3s2)cc1)C1CCN(S(=O)(=O)c2c(Cl)cc(Br)cc2Cl)CC1 [Compound 7k, N-(4-(benzo[d]thiazol-2-yl)phenyl)-1-((4-bromo-2,6-dichlorophenyl)sulfonyl)piperidine-4-carboxamide] | 0.0897 | 1790 | 42.5 | 41 | – |
| C[C@]12CC[C@H]3[C@@H](CCC4=CC(=O)CC[C@@]43C)[C@@H]1CC[C@@H]2O [Testosterone (control), testosterone, reference compound] | – | – | – | – | microsomal CLint at 1 μM ([3]; microsomes): 61 µL/min/mg; half-life at 1 μM ([5]; microsomes): 1.1 min; microsomal CLint at 1 μM ([5]; microsomes): 1250 µL/min/mg; microsomal CLint at 1 μM ([7]; microsomes): 280 µL/min/mg |
| O=C(Nc1ccc(OC(F)(F)F)cc1)NC1CCC(Oc2ccc(C(=O)O)cc2)CC1 (stereo not shown) [t-TUCB, reference compound] | – | – | – | – | IC50 [4, 10]: 9.3 nM |
